US20260193255A1, “7-AZAINDOLE COMPOUNDS, PREPARATION METHOD THEREFOR, AND USE THEREOF” (Fudan University, priority 2022, published 2026)
One block for each compound: values may come before it.

Key:
mouse myoblasts (C2C12) = test: Atrophy of mouse myoblasts (C2C12) induced by C26 cell supernatant, myotube diameter by HE staining; type: cell-based; settings: Mus musculus, 48 hours treatment, C26 supernatant-induced C2C12 myotubes, read-out: Myotube atrophy reversal rate
Experimental: C2C12 cells were inoculated in 24-well plates. The culture system was high-glucose DMEM medium containing 10% FBS with 1% penicillin-streptomycin. The plates were placed in a 5% CO2, 37° C. environment. When the cell growth density reached 50%-60%, the culture system was replaced with high-glucose DMEM culture medium containing 2% HS with 1% penicillin-streptomycin. Fresh 2% HS differentiation medium was replaced every 48 hours, and the cells were differentiated into mature cells on the 5th or 6th day. Additionally, C26 cells were inoculated in T75 flasks. The culture system was high-glucose DMEM medium containing 10% FBS with 1% penicillin-streptomycin. The flasks were placed in a 5% CO2, 37° C. environment. When subculturing, the cells were subcultured at 6 million cells/flask. After culturing in 20 ml of culture medium for 48 hours, the supernatant was collected and centrifuged at 1000 rpm for 3 mins. The supernatant was collected and centrifuged at 4000 rpm for 10 mins to obtain the C26 supernatant. The C26 supernatant and 2% HS differentiation solution were mixed at a ratio of 1:1 (volume ratio) as the muscle atrophy induction solution. Except for the control group in which 2% HS differentiation solution was added, for the other groups, an equivalent amount of muscular atrophy induction solution was added. One group was used as the model group, and the other groups were used as the treatment and experimental groups.
The diameter of myotubes after differentiation of mouse myoblasts (C2C12) was evaluated by using the diameter measurement method. The method for measuring the diameter of myotubes was as follows: after 48 hours of treatment, the myotubes were fixed with a fixative (anhydrous ethanol: formaldehyde: glacial acetic acid (volume ratio)=20:2:1) for more than 1 h and stained. The staining method used in the experiment is hematoxylin-eosin staining, referred to as HE staining for short. Hematoxylin stain is alkaline and positively charged, and it can easily bind to the negatively charged and acidic deoxyribonucleic acid (DNA) in the cell nucleus through ionic bonds to stain it blue; eosin is an acidic dye that dissociates into negatively charged anions in water, and it can easily bind to the positively charged amino groups of proteins in the cytoplasm to stain it red. The stained cells were placed under a high-power microscope to take pictures (magnification: 200 times), and the diameter of myotube cells was statistically analyzed using image J software. The muscle atrophy reversal rate was calculated according to the following formula: Muscle atrophy reversal rate=(average value of myotubes in the treatment group-average value of myotubes in the model group)/(average value of myotubes in the control group-average value of myotubes in the model group)×100%

[1] = test system: C26 tumor cancer cachexia model, BALB/c mice; test: Cancer cachexia animal model, compounds 3 and 10 (C26 tumor, BALB/c mice, 10 mg/kg ip); type: in vivo, mouse; settings: 10 mg/kg ip daily; for Cross-sectional area of gastrocnemius fibers: H&E sections; for Muscle grasp force: p<0.05
Experimental: C26 cells were inoculated in T75 flasks. The culture system was 1640 medium containing 10% FBS with 1% penicillin-streptomycin. The flasks were placed in a 5% CO2, 37° C. environment for expansion culture. The cells were collected by centrifugation at 1000 rpm for 3 mins, and the culture medium was washed away with ice-cold PBS buffer, and a cell suspension of 10 million/ml was prepared. The cell suspension was inoculated into the left and right armpits of BALB/c mice at a concentration of 1 million for tumor development. When the tumor volume increased to 1000 mm^3, the tumor was removed and homogenized with 3 ml of ice saline/g to obtain a tumor tissue suspension. The mice to be inoculated were divided into groups according to their weight, and the cell suspension was inoculated into the left armpit of BALB/c mice at an inoculation volume of 100 μl per mouse. Treatment was started from the day after inoculation. Compounds 3 and 10 were dissolved in 3% DMSO, 2% Solutol and 95% saline in sequence to form a uniform solution with the required concentration. The solution was prepared and used daily. The dose was 10 mg/kg and the compound was administered by intraperitoneal injection (ip). The body weight, temperature, tumor size and food intake of mice were monitored daily. […] In the middle stage of the experiment, the weight of the mice in the model group began to decrease, which was considered to have entered the mid-cachexia stage. When the tumor volume of the mice in the model group reached 2.0× 103 mm^3 or their body weight decreased by 10%, they were considered to have entered the late-cachexia stage. The muscle grasp force of the mice's forelimbs was tested at these three stages. At the end of the experiment, the mice were killed by cervical dislocation and the gastrocnemius, tibialis anterior, right hind limb and tumor samples were obtained, and the sample weights were measured. Gastrocnemius tissue of appropriate size was obtained, and H&E stained tissue sections were prepared through processes such as fixation, embedding, slicing, staining. At least 10 fields of view were randomly selected for slices of different groups for photographing, and the cross-sectional areas of all muscle fibers in the photographs were measured and statistically analyzed.
(§1) The method for detecting muscle grasp force was as follows: The muscle grasp force of mice was tested on the 3rd day (pre-cachexia stage), the 11th day (mid-cachexia stage) and the 16th day (late-cachexia stage) of the experiment. The mouse was steadily placed on the YLS-13A Mouse and Rat Grasp Force Tester by using the right hand, so that its forelimbs could tightly grasp the gripping disk, and the gripping disk was stabilized by using the left hand moving forward. When the left hand slowly released the gripping disk, the right hand immediately and slowly pulled the mouse's tail backwards until its forelimbs were separated from the gripping disk. The test was repeated 8 times for each mouse, and the mean value of the 8 measurements was used as the skeletal muscle strength index of each mouse.

ActRIIB = ActRIIB (Homo sapiens, UniProt Q13705); test: ActRIIB inhibitory activity, ADP-Glo assay kit; type: biochemical; settings: ATP 25 μM, substrate 0.1 mg/mL, ActRIIB 20.0 ng/μL
Sequence of ActRIIB (Q13705 19-512): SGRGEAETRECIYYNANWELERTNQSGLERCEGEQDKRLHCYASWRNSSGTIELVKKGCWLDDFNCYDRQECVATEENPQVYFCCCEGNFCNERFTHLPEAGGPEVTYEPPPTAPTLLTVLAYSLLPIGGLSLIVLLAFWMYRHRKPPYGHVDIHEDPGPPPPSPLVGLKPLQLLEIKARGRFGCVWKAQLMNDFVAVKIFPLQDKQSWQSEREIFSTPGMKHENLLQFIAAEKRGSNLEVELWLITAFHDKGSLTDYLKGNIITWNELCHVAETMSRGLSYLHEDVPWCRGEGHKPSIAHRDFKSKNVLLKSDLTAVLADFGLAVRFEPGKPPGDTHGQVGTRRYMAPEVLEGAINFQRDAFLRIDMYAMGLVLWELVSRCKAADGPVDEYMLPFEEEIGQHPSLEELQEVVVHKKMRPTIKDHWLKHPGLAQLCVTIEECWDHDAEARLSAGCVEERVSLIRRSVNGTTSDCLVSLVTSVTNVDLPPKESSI
Experimental: The ATP and substrate concentrations recommended by the ADP-Glo™ assay kit were used, which were 25 μM and 0.1 mg/mL, respectively, and a series of isocratic final ActRIIB concentrations were set up, which were 0, 0.47, 0.94, 1.88, 3.75, 7.5, 15, 30, and 60 ng/μL, respectively. According to the […] values obtained in the experiment, an ActRIIB concentration titration curve was drawn. The ActRIIB concentrations corresponding to the ratio of the signal value to the background value (i.e., signal-to-background ratio, SBR) in the range of 5-10 times are suitable for screening compounds for inhibition of ActRIIB activity. From the ActRIIB concentration titration curve, the final ActRIIB concentrations corresponding to SB5 and SB10 were calculated to be 14.9 and 23.7 ng/μL, respectively. Finally, a final concentration of 20.0 ng/μL was selected as the experimental concentration for screening compounds for their inhibitory activity against ActRIIB. The inhibitory efficiency of 7-azaindole compounds on ActRIIB was detected at concentrations of 0.1, 1, 10, and 100 nM, respectively.

[2] = test system: C26 tumor cancer cachexia model, BALB/c mice; test: Cancer cachexia animal model, compound 2 (C26 tumor, BALB/c mice, 5 mg/kg ig); type: in vivo, mouse; settings: 5 mg/kg ig daily
Experimental: C26 cells were inoculated in T75 flasks. The culture system was 1640 medium containing 10% FBS with 1% penicillin-streptomycin. The flasks were placed in a 5% CO2, 37° C. environment for expansion culture. The cells were collected by centrifugation at 1000 rpm for 3 mins, and the culture medium was washed away with ice-cold PBS buffer, and a cell suspension of 10 million/ml was prepared. The cell suspension was inoculated into the left and right armpits of BALB/c mice at a concentration of 1 million for tumor development. When the tumor volume increased to 1000 mm^3, the tumor was removed and homogenized with 3 ml of ice saline/g to obtain a tumor tissue suspension. The mice to be inoculated were divided into groups according to their weight, and the cell suspension was inoculated into the left armpit of Balb/c mice at an inoculation volume of 100 μl per mouse. Treatment was started from the day after inoculation. Compound 2 was dissolved in 3% DMSO, 2% Solutol and 95% saline in sequence to form a uniform solution with the required concentration. The solution was prepared and used daily. The dose was 5 mg/kg and the compound was administered by the intragastric (ig) route. The body weight, temperature, tumor size and food intake of mice were monitored daily. […] When the tumor volume of mice in the model group reached 2.0× 103 mm^3 or their body weight decreased by 10%, they were considered to have entered the cachexia stage. The muscle grasp force of the mice's forelimbs was tested at these two stages. […] At the end of the experiment, the mice were killed by cervical dislocation and the gastrocnemius, tibialis anterior, right hind limb and tumor samples were obtained, and the sample weights were measured.
as §1, with “5th” for “3rd”, “(pre-cachexia” for “(pre-cachexia stage), the 11th day (mid-cachexia”, “22nd” for “16th”, “(cachexia” for “(late-cachexia”

- IC50 (ActRIIB): 1.1 nM
Compound: CN1CCN(c2ccc(-c3cnc4[nH]cc(-c5ccc6[nH]ccc6c5)c4c3)cc2)CC1 [Compound 3, 3-(1H-indol-5-yl)-5-[4-(4-methylpiperazin-1-yl)phenyl]-1H-pyrrolo[2,3-b]pyridine]
- inhibition at 2.5 µM (mouse myoblasts (C2C12)): 90.9%
- Average accumulative food intake vs C26 tumor model group [1]: slightly higher than that in the C26 tumor model group
- Gastrocnemius atrophy (muscle mass) [1]: cannot significantly alleviate the gastrocnemius atrophy in cachectic mice
- Right hind limb weight (skeletal muscle atrophy) [1]: improve skeletal muscle atrophy in cachectic mice to a certain extent
- Tibialis anterior atrophy (muscle mass) [1]: cannot significantly alleviate the tibialis anterior atrophy in cachectic mice
- Tumor volume vs C26 tumor model group [1]: slightly reduced compared with the C26 tumor model group, but there was no significant difference
- Weight loss (tumor-bearing and tumor-free body weight) vs C26 tumor model group [1]: alleviate the weight loss of mice to some extent
- Cross-sectional area of gastrocnemius fibers [1]: significantly alleviate the reduction in the cross-sectional area of the gastrocnemius in cachectic mice
- Muscle grasp force [1]: significantly enhance the muscle grasp force of cachexia mice

- IC50 (ActRIIB): 4 nM
Compound: c1cc(-c2c[nH]c3ncc(-c4ccc(OCCN5CCOCC5)cc4)cc23)n[nH]1 [Compound 10, 3-(1H-pyrazol-3-yl)-5-(4-[[2-(1,4-oxazacyclohexan-4-yl)ethyl]oxy]phenyl)-1H-pyrrolo[2,3-b]pyridine]
- inhibition at 1.25 µM (mouse myoblasts (C2C12)): 42.4%
- inhibition at 2.5 µM (mouse myoblasts (C2C12)): 58.9%
- inhibition at 5 µM (mouse myoblasts (C2C12)): 100%
- Average accumulative food intake vs C26 tumor model group [1]: slightly higher than that in the C26 tumor model group
- Gastrocnemius atrophy (muscle mass) [1]: cannot significantly alleviate the gastrocnemius atrophy in cachectic mice
- Right hind limb weight (skeletal muscle atrophy) [1]: improve skeletal muscle atrophy in cachectic mice to a certain extent
- Tibialis anterior atrophy (muscle mass) [1]: cannot significantly alleviate the tibialis anterior atrophy in cachectic mice
- Tumor volume vs C26 tumor model group [1]: slightly reduced compared with the C26 tumor model group, but there was no significant difference
- Weight loss (tumor-bearing and tumor-free body weight) vs C26 tumor model group [1]: significantly alleviate the weight loss of mice
- Cross-sectional area of gastrocnemius fibers [1]: significantly alleviate the reduction in the cross-sectional area of the gastrocnemius in cachectic mice
- Muscle grasp force [1]: significantly enhance the muscle grasp force of cachexia mice

- IC50 (ActRIIB): 1.8 nM
Compound: CN1CCN(c2ccc(-c3cnc4[nH]cc(-c5cc[nH]n5)c4c3)cc2)CC1 [Compound 2, 3-(1H-pyrazol-3-yl)-5-[4-(4-methylpiperazin-1-yl)phenyl]-1H-pyrrolo[2,3-b]pyridine]
- inhibition at 1.25 µM (mouse myoblasts (C2C12)): 69.2%
- inhibition at 2.5 µM (mouse myoblasts (C2C12)): 97.6%
- inhibition at 5 µM (mouse myoblasts (C2C12)): 131%
- Average accumulative food intake vs C26 tumor model group [2]: slightly higher than that in the C26 tumor model group
- Right hind limb weight (skeletal muscle atrophy) [2]: improve skeletal muscle atrophy in cachectic mice to a certain extent
- Tumor volume vs C26 tumor model group [2]: slightly reduced compared with the C26 tumor model group, but there was no significant difference
- Muscle grasp force ([2]; cachexia stage, p=0.06): significantly enhance the muscle grasp force of cachexia mice
- Gastrocnemius mass (gastrocnemius atrophy) ([2]; p<0.05): significantly alleviate the gastrocnemius atrophy in cachectic mice
- Tibialis anterior mass (tibialis anterior atrophy) ([2]; p<0.05): significantly alleviate the tibialis anterior atrophy in cachectic mice
- Weight loss (tumor-bearing and tumor-free body weight) vs C26 tumor model group ([2]; p<0.05 at end of experiment): significantly alleviate the weight loss of mice
